Experimental data reported in ChEMBL document CHEMBL2429826, “Design, synthesis, and evaluation of prodrugs of ertapenem” (ACS Med Chem Lett, 2013).

How the values were obtained:
[1] = Metabolic stability in human plasma assessed as compound remaining at 50 uM after 60 mins by LC-MS/MS analysis; assay type: ADME, cell-free; conditions: read-out: Stability
[2] = tested on: Canis familiaris; assay: AUC (0 to 8 hrs) in Beagle dog assessed as (4R,5S,6S)-3-((3S,5S)-5-(3-(ethoxycarbonyl)phenylcarbamoyl)pyrrolidin-3-ylthio)-6-((R)-1-hydroxyethyl)-4-methyl-7-oxo-1-azabicyclo[3.2.0]hept-2-ene-2-carboxylic acid at 10 mg/kg, ID administered as infusion; assay type: ADME, organism-based, Canis lupus familiaris, Plasma; set-up: time < 8 hr, dose 10 mg/kg, route intraduodenal; conditions: in vivo, other
[3] = tested on: Canis familiaris; assay: Bioavailability in Beagle dog assessed as ertapenem at 10 mg/kg, ID administered as infusion; assay type: ADME, organism-based, Canis lupus familiaris; conditions: in vivo, other
[4] = tested on: Rattus norvegicus; assay: AUC (0 to 8 hrs) in Sprague-Dawley rat assessed as (4R,5S,6S)-3-((3S,5S)-5-(3-(ethoxycarbonyl)phenylcarbamoyl)pyrrolidin-3-ylthio)-6-((R)-1-hydroxyethyl)-4-methyl-7-oxo-1-azabicyclo[3.2.0]hept-2-ene-2-carboxylic acid at 10 mg/kg, ID administered as infusion; assay type: ADME, organism-based, Plasma; set-up: time < 8 hr, dose 10 mg/kg, route intraduodenal; conditions: in vivo, other, BLD = below limit of detection
[5] = Metabolic stability in rat plasma assessed as compound remaining at 50 uM after 60 mins by LC-MS/MS analysis; assay type: ADME, cell-free; conditions: read-out: Stability
[6] = tested on: Rattus norvegicus; assay: AUC (0 to 8 hrs) in Sprague-Dawley rat assessed as ertapenem at 10 mg/kg, ID administered as infusion; assay type: ADME, organism-based, Plasma; set-up: time < 8 hr, dose 10 mg/kg, route intraduodenal; conditions: in vivo, other
[7] = tested on: Rattus norvegicus; assay: Bioavailability in Sprague-Dawley rat assessed as ertapenem at 10 mg/kg, ID administered as infusion; assay type: ADME, organism-based; conditions: in vivo, other
[8] = tested on: Canis familiaris; assay: AUC (0 to 8 hrs) in Beagle dog assessed as 3-((2S,4S)-4-((4R,5S,6S)-2-(ethoxycarbonyl)-6-((R)-1-hydroxyethyl)-4-methyl-7-oxo-1-azabicyclo[3.2.0]hept-2-en-3-ylthio)pyrrolidine-2-carboxamido)benzoic acid at 10 mg/kg, ID administered as infusion; assay type: ADME, organism-based, Canis lupus familiaris, Plasma; set-up: time < 8 hr, dose 10 mg/kg, route intraduodenal; conditions: in vivo, other
[9] = tested on: Rattus norvegicus; assay: AUC (0 to 8 hrs) in Sprague-Dawley rat assessed as 3-((2S,4S)-4-((4R,5S,6S)-2-(ethoxycarbonyl)-6-((R)-1-hydroxyethyl)-4-methyl-7-oxo-1-azabicyclo[3.2.0]hept-2-en-3-ylthio)pyrrolidine-2-carboxamido)benzoic acid at 10 mg/kg, ID administered as infusion; assay type: ADME, organism-based, Plasma; set-up: time < 8 hr, dose 10 mg/kg, route intraduodenal; conditions: in vivo, other, BLD = below limit of detection
[10] = Metabolic stability in dog plasma assessed as compound remaining at 50 uM after 60 mins by LC-MS/MS analysis; assay type: ADME, cell-free, Canis lupus familiaris; conditions: read-out: Stability
[11] = tested on: Canis familiaris; assay: AUC (0 to 8 hrs) in Beagle dog assessed as ertapenem at 10 mg/kg, ID administered as infusion; assay type: ADME, organism-based, Canis lupus familiaris, Plasma; set-up: time < 8 hr, dose 10 mg/kg, route intraduodenal; conditions: in vivo, other
[12] = tested on: Hepatocyte; assay: Drug metabolism in rat hepatocytes assessed as tebipenem level after 15 mins; assay type: ADME, cell-based; conditions: 0.25 h
[13] = tested on: Liver microsomes; assay: Drug metabolism in rat liver microsomes assessed as tebipenem level after 15 mins; assay type: ADME, Microsome; conditions: 0.25 h
[14] = Metabolic stability in monkey plasma assessed as compound remaining at 50 uM after 60 mins by LC-MS/MS analysis; assay type: ADME, cell-free, Macaca mulatta; conditions: rhesus monkey, read-out: Stability
[15] = Drug metabolism in monkey hepatocytes assessed as tebipenem level after 15 mins; assay type: ADME, cell-based, Macaca mulatta, Hepatocyte; conditions: rhesus monkey, 0.25 h
[16] = Drug metabolism in dog hepatocytes assessed as tebipenem level after 15 mins; assay type: ADME, cell-based, Canis lupus familiaris, Hepatocyte; conditions: 0.25 h
[17] = tested on: Hepatocyte; assay: Drug metabolism in human hepatocytes assessed as tebipenem level after 15 mins; assay type: ADME, cell-based; conditions: 0.25 h
[18] = tested on: Liver microsomes; assay: Drug metabolism in human liver microsomes assessed as tebipenem level after 15 mins; assay type: ADME, Microsome; conditions: 0.25 h
[19] = Drug metabolism in monkey liver microsomes assessed as tebipenem level after 15 mins; assay type: ADME, Macaca mulatta, Microsome; conditions: rhesus monkey, 0.25 h
[20] = Drug metabolism in dog liver microsomes assessed as tebipenem level after 15 mins; assay type: ADME, Canis lupus familiaris, Microsome; conditions: 0.25 h
[21] = AUC (0 to 8 hrs) in Sprague-Dawley rat at 10 mg/kg, ID administered as infusion; assay type: ADME, organism-based; set-up: time < 8 hr, dose 10 mg/kg, route intraduodenal; conditions: plasma
[22] = Apparent permeability of the compound in pig LLC-PK1 cells
[23] = AUC (0 to 8 hrs) in Sprague-Dawley rat at 10 mg/kg, po; assay type: ADME, organism-based; set-up: time < 8 hr, dose 10 mg/kg, route oral; conditions: plasma
[24] = Oral bioavailability in Sprague-Dawley rat at 10 mg/kg; assay type: ADME, organism-based; conditions: in vivo
[25] = AUC (0 to 8 hrs) in Sprague-Dawley rat at 1 mg/kg, iv; assay type: ADME, organism-based; set-up: time < 8 hr, dose 1 mg/kg, route intravenous; conditions: plasma
[26] = AUC (0 to 8 hrs) in Beagle dog at 1 mg/kg, iv; assay type: ADME, organism-based, Canis lupus familiaris; set-up: time < 8 hr, dose 1 mg/kg, route intravenous; conditions: plasma
[27] = tested on: Rattus norvegicus; assay: AUC (0 to 8 hrs) in Sprague-Dawley rat assessed as (4R,5S,6S)-3-((3S,5S)-5-(3-(ethoxycarbonyl)phenylcarbamoyl)pyrrolidin-3-ylthio)-6-((R)-1-hydroxyethyl)-4-methyl-7-oxo-1-azabicyclo[3.2.0]hept-2-ene-2-carboxylic acid at 4.4 mg/kg, ID administered as infusion; assay type: ADME, organism-based, Plasma; set-up: time < 8 hr, dose 4.4 mg/kg, route intraduodenal; conditions: in vivo, other
[28] = tested on: Rattus norvegicus; assay: Bioavailability in Sprague-Dawley rat assessed as ertapenem at 4.4 mg/kg, ID administered as infusion; assay type: ADME, organism-based; conditions: in vivo, other
[29] = tested on: Rattus norvegicus; assay: AUC (0 to 8 hrs) in Sprague-Dawley rat assessed as 3-((2S,4S)-4-((4R,5S,6S)-2-(ethoxycarbonyl)-6-((R)-1-hydroxyethyl)-4-methyl-7-oxo-1-azabicyclo[3.2.0]hept-2-en-3-ylthio)pyrrolidine-2-carboxamido)benzoic acid at 4.4 mg/kg, ID administered as infusion; assay type: ADME, organism-based, Plasma; set-up: time < 8 hr, dose 4.4 mg/kg, route intraduodenal; conditions: in vivo, other
[30] = tested on: Rattus norvegicus; assay: AUC (0 to 8 hrs) in Sprague-Dawley rat assessed as ertapenem at 4.4 mg/kg, ID administered as infusion; assay type: ADME, organism-based, Plasma; set-up: time < 8 hr, dose 4.4 mg/kg, route intraduodenal; conditions: in vivo, other

In the case of `C[C@@H](O)[C@H]1C(=O)N2C(C(=O)OCOC(=O)C(C)(C)C)=C(S[C@@H]3CN[C@H](C(=O)Nc4cccc(C(=O)OCOC(=O)C(C)(C)C)c4)C3)[C@H](C)[C@H]12`, the remaining at 1 h, 50 µM [1] is reported as 36%, the AUC ([2]; BLD = below limit of detection) is reported as “BLD” and the F [3] is reported as 3%. The AUC [4] was “BLD”, the remaining at 1 h, 50 µM [5] was 2% and the AUC [6] was 0.2 µM·h. For the same compound, the F [7] was 0.37%, the AUC [8] was 0.04 µM·h and the AUC [9] was “BLD”. For the same compound, the remaining at 1 h, 50 µM [10] was 37% and the AUC [11] was 1.81 µM·h.
With `C[C@@H](O)[C@H]1C(=O)N2C(C(=O)OCOC(=O)C(C)(C)C)=C(SC3CN(C4=NCCS4)C3)[C@H](C)[C@H]12` [TEBIPENEM PIVOXIL] the Drug metabolism [12] was “Active”, the Drug metabolism [13] was “Active” and the remaining at 1 h, 50 µM [1] was 0%. The remaining at 1 h, 50 µM [14] was 0%, the Drug metabolism [15] was “Active” and the remaining at 1 h, 50 µM [5] was 0%. The Drug metabolism [16] was “Active”, the Drug metabolism [17] was “Active” and the Drug metabolism [18] was “Active”. The Drug metabolism [19] was “Active”, the Drug metabolism [20] was “Active” and the remaining at 1 h, 50 µM [10] was 25%.
In the case of `C[C@@H](O)[C@H]1C(=O)N2C(C(=O)O)=C(S[C@@H]3CN[C@H](C(=O)Nc4cccc(C(=O)O)c4)C3)[C@H](C)[C@H]12`, the AUC(0-t) at 8 h [21] is reported as 0.48 µM·h, the Papp [22] is reported as 0.5 ×10⁻⁶ cm/s and the AUC(0-t) at 8 h [23] is reported as 0.39 µM·h. It also gave a bioavailability [24] of 0.53%, an AUC(0-t) at 8 h [25] of 7.84 µM·h and an AUC(0-t) at 8 h [26] of 8.9 µM·h.
In the case of `C[C@@H](O)[C@H]1C(=O)N2C(C(=O)O)=C(SC3CN(C4=NCCS4)C3)[C@H](C)[C@H]12` [TEBIPENEM], the Papp [22] is reported as 0.7 ×10⁻⁶ cm/s.
In the case of `C[C@@H](O)[C@H]1C(=O)N2C3=C(S[C@@H]4CN[C@@H](C4)C(=O)Nc4cccc(c4)C(=O)OCCCOC3=O)[C@H](C)[C@H]12`, the remaining at 1 h, 50 µM [1] is reported as 17%, the remaining at 1 h, 50 µM [14] is reported as 49% and the F [3] is reported as 0.53%. It also gave a remaining at 1 h, 50 µM [5] of 0%, a remaining at 1 h, 50 µM [10] of 79% and an AUC [11] of 0.44 µM·h.
In the case of `Cc1oc(=O)oc1COC(=O)C1=C(S[C@@H]2CN[C@H](C(=O)Nc3cccc(C(=O)OCc4oc(=O)oc4C)c3)C2)[C@H](C)[C@@H]2[C@@H]([C@@H](C)O)C(=O)N12`, the remaining at 1 h, 50 µM [1] is reported as 1%, the remaining at 1 h, 50 µM [14] is reported as 2% and the remaining at 1 h, 50 µM [5] is reported as 1%. It also gave an AUC [6] of 0.3 µM·h, an F [7] of 0.77% and a remaining at 1 h, 50 µM [10] of 3%.
In the case of `CCOC(=O)C1=C(S[C@@H]2CN[C@H](C(=O)Nc3cccc(C(=O)OCC)c3)C2)[C@H](C)[C@@H]2[C@@H]([C@@H](C)O)C(=O)N12`, the remaining at 1 h, 50 µM [1] is reported as 5%, the AUC [2] is reported as 3.34 µM·h and the remaining at 1 h, 50 µM [14] is reported as 77%. It also gave an F [3] of 18.1%, a Papp [22] of 13 ×10⁻⁶ cm/s and a remaining at 1 h, 50 µM [5] of 0%. For the same compound, the AUC [27] was 0.42 µM·h, the AUC [8] was 2.17 µM·h and the remaining at 1 h, 50 µM [10] was 75%. The AUC [11] was 14.3 µM·h, the F [28] was 4.98% and the AUC [29] was 0.07 µM·h. It also gave an AUC [30] of 1.54 µM·h.
